Measured values published in PubChem BioAssay AID602338 (NMMLSC, 2012).
The source made the active and inactive calls. No rule for the calls is given here.

Target: Botulinum neurotoxin type F (Clostridium botulinum) (UniProt P30996)
Test: Botulinum neurotoxin type F light chain protease inhibitors, multiplex microsphere dose response (AID 602338)
Conditions: multiplex microsphere protease cleavage assay, flow cytometry

Row | Compound | EC50
1 | CS(=O)(=O)N1N=C(c2ccccc2)CC1c1ccc2c(c1)OCO2 (centres undefined) | > 20 µM (inactive)
2 | COc1ccc(C2CC(c3cccs3)=NN2c2nc(C)c(C(C)=O)s2)cc1OC (centres undefined) | > 20 µM (inactive)
3 | COc1ccc(OC)c(-c2nc3cc4ccccc4cc3nc2-c2ccccc2)c1 | > 20 µM (inactive)
4 | O=C(Nc1ccc2nc(-c3cccs3)c(-c3cccs3)nc2c1)NC1CC1 | > 20 µM (inactive)
5 | c1ccc(-c2cn3nc(-c4ccccc4)c(-c4ccccc4)nc3n2)cc1 | > 20 µM (inactive)
6 | Oc1[nH]c(N=C2N=c3ccccc3=N2)c2ccccc12 | > 20 µM (inactive)
7 | Cn1c(=O)c(/C=C/c2ccccc2)nc2ccccc21 | > 20 µM (inactive)
8 | CSc1nnc2c(n1)c(C)nn2-c1cccc(C)c1 | > 20 µM (inactive)
9 | CCS(=O)(=O)N1N=C(c2cccc(NS(C)(=O)=O)c2)CC1c1ccccc1 (centres undefined) | > 20 µM (inactive)
10 | CCSc1nnc(-c2sc3nnc(-c4ccccc4)c(-c4ccccc4)c3c2N)o1 | > 20 µM (inactive)
11 | O=C(Nc1ccc2nc(-c3cccs3)c(-c3cccs3)nc2c1)N1CCOCC1 | > 20 µM (inactive)
12 | O=[N+]([O-])c1cccc(-c2cn3nc(-c4ccccc4)c(-c4ccccc4)nc3n2)c1 | > 20 µM (inactive)
13 | O=c1c(/C=C(\O)c2ccccc2)nc2ccccc2n1-c1ccccc1 | > 20 µM (inactive)
14 | CCOc1ccc2nc3cc(NCc4ccc(OC)cc4)ccc3c(N)c2c1 | > 20 µM (inactive)
